Where a SMILES comes first, the peptide text is derived from it. [ ]: non-standard residue; d: D form. 2Thi = N[C@@H](Cc1cccs1)C(=O)O; Aib = CC(C)(N)C(=O)O
Key:
[1] = Circular dichroism spectroscopy, secondary structure; assay type: physicochemical; details: 0.1 mg/mL, 25°C; for [θ]222: average of three scans; for %α-helix: from [θ]222
Procedure: The secondary structures of Pep05 and its derivatives were investigated using a Chirascan qCD Spectrometer (Applied Photophysics, United Kingdom). The peptides were dissolved to a final concentration of 0.1 mg/mL in four different solvents, namely, 10 mM phosphate buffer (PB; pH 7.4), 50% TFE/PB, 25 mM SDS in PB, and 0.1% LPS in PB ([Kim et al., 2017]). Circular dichroism (CD) spectra were recorded from 260 to 190 nm at 25°C as the average of three scans. Data were collected using a path length of 0.1 cm, scan speed of 50 nm/min, bandwidth of 1.0 nm, response time of 1 s, and resolution of 0.1 nm ([Khara et al., 2016]). Following background subtraction, the observed ellipticity [θ]obs (mdeg) was converted to molar ellipticity [θ] (deg⋅cm^2⋅dmol^–1) using the equation [θ] = [θ]obs(MRW/10cl), where [θ]obs is the observed ellipticity corrected for the blank at a given wavelength (mdeg), MRW is the mean residue molecular weight (molecular weight/number of amino acids), c is the peptide concentration (mg/mL), and l is the path length (cm). Assuming a two-state model, the percentage of α-helix structure was calculated using the following equation: α-helical content = −([θ]222 + 2000)/30000 × 100% ([Jia et al., 2017]).
The influence of the amino acid substitutions on the peptide secondary structure was investigated using CD spectroscopy under different conditions, including 10 mM PB at pH 7.4 (mimicking an aqueous environment), 50% TFE (mimicking a hydrophobic bacterial membrane environment), 25 mM SDS (mimicking a negatively charged bacterial membrane environment), and 0.1% LPS (mimicking a bacterial outer membrane environment).

P. aeruginosa ATCC 9027 = experiment: In vivo antibacterial activity, lethal intraperitoneal infection; details: BALB/c mice, lethal i.p. dose of P. aeruginosa ATCC 9027, 10 mg/kg i.p. at 1 and 8 h post-infection, n = 10
Procedure: The in vivo antibacterial activities of the peptides were evaluated in BALB/c mice using P. aeruginosa ATCC 9027 as a test strain. A total of 20 mice (6 weeks old, approximate weight: 18–20 g, SFP grade) were first used to measure the minimal lethal doses (MLD) with 5 mice for each inoculum. Cell numbers of selected strains were determined from the colony numbers from the plate count agar and four inocula (1 × 10^6, 5 × 10^6, 1 × 10^7, and 5 × 10^7 CFU/mouse) were administered via intraperitoneal injection. The minimal lethal dose was determined by measuring the mortality rate after 72 h. BALB/c mice were then injected intraperitoneally with a lethal dose of P. aeruginosa ATCC 9027. […] Colistin (10 mg/kg) was used as a positive control. The survival of the animals was monitored over 7 d.

[2] = test system: all of the bacterial and fungal supernatants tested; details: pH 8.0, peptide 0.5 mg/mL, 37°C, 24 h, RP-HPLC
Procedure: The stabilities of the peptides toward proteases secreted by E. coli ATCC 25922, P. aeruginosa ATCC 27853, A. baumannii ATCC 19606, S. aureus ATCC 25923, and C. albicans ATCC 10231 were also examined. Microbial supernatants were prepared by resuspending single colonies of each strain in 20 mL of an appropriate culture medium followed by incubation at 37°C overnight. MH broth and 2% tryptone/2% dextrose were used as the culture media for bacteria and yeast, respectively. Each culture was then centrifuged at 12,000 × g for 10 min and the supernatant was adjusted to pH 8.0 with HCl or NaOH and then filtered through a 0.22 μm sterile filter membrane ([Zaet et al., 2017]). The peptides were then dissolved in the filtered supernatants to a concentration of 0.5 mg/mL, and the peptide-free supernatants were used as negative controls. The samples were incubated at 37°C for 24 h in a water bath and then analyzed by RP-HPLC as described above.

Compound	[θ]222 ([1]; 10 mM PB buffer pH 7.4)	%α-helix ([1]; 10 mM PB buffer pH 7.4, rc = random coil)	[θ]222 ([1]; 25 mM SDS in PB)	%α-helix ([1]; 25 mM SDS in PB, rc = random coil) [%]	[θ]222 ([1]; 0.1% LPS in PB)	%α-helix ([1]; 0.1% LPS in PB) [%]	[θ]222 ([1]; 50% TFE/PB)	%α-helix ([1]; 50% TFE/PB, rc = random coil) [%]	survival rate (P. aeruginosa ATCC 9027; after 3 d) [%]	survival rate (P. aeruginosa ATCC 9027; after 7 d) [%]	original peptide remaining in microbial supernatants [2]
CC(C)C[C@H](NC(=O)[C@H](Cc1ccc(O)cc1)NC(=O)[C@H](CCCCN)NC(=O)[C@H](CC(C)C)NC(=O)[C@H](CC(C)C)NC(=O)[C@H](CCCCN)NC(=O)[C@H](CCCCN)NC(=O)[C@H](Cc1ccccc1)NC(=O)[C@H](CC(C)C)NC(=O)[C@H](CCCNC(=N)N)NC(=O)C(C)(C)N)C(=O)N[C@@H](CCCNC(=N)N)C(=O)N[C@@H](CCCCN)C(=O)N[C@@H](Cc1cccs1)C(N)=O [UP09] (H-[Aib]RLFKKLLKYLRK[2Thi]-NH2; N-terminus assumed)	–1842.7 deg⋅cm^2⋅dmol^–1	rc	–4643.3 deg⋅cm^2⋅dmol^–1	8.8	–11064.1 deg⋅cm^2⋅dmol^–1	30.2	–11436.9 deg⋅cm^2⋅dmol^–1	31.5	40	10	
CC(C)C[C@H](NC(=O)[C@H](CC(C)C)NC(=O)[C@@H](CCCCN)NC(=O)[C@@H](CCCCN)NC(=O)[C@H](Cc1ccccc1)NC(=O)[C@H](CC(C)C)NC(=O)[C@@H](CCCNC(=N)N)NC(=O)[C@H](N)CCCCN)C(=O)N[C@H](CCCCN)C(=O)N[C@@H](Cc1ccc(O)cc1)C(=O)N[C@@H](CC(C)C)C(=O)N[C@H](CCCNC(=N)N)C(=O)N[C@H](CCCCN)C(=O)N[C@@H](Cc1ccccc1)C(N)=O [DP06] (H-[dK][dR]LF[dK][dK]LL[dK]YL[dR][dK]F-NH2)											more than 60%

Reference: article PMC7688903 (Frontiers in Microbiology, 2020)
